Reference: publication PMC8175350, “Drug repurposing screens identify chemical entities for the development of COVID-19 interventions” (Nature Communications, 2021)
Several values for one entry are separate records, joined by “and”; a condition that tells them apart may be missing. Equal entries are not always repeated. Structures can show the parent of a compound that is named as a salt. Where two headings read alike, the source gives them in different places.

Assays:
[1] = tested on: HeLa-ACE2 cells; assay: cells; details: Homo sapiens
[2] = in vitro; details: human
[3] = in vitro; details: human, Calu-3 uninfected cytotoxicity CC50 GeoMean
[4] = tested on: SARS-CoV-2; assay: microbe, parasite or virus in culture; type: cell-based; details: for EC50: Severe acute respiratory syndrome coronavirus 2, Calu-3, read-out: Calu-3 CoV-2 EC50 GeoMean
[5] = tested on: SARS-CoV-2; assay: microbe, parasite or virus in culture; type: cell-based; details: for EC50: read-out: HeLa-ACE2 TOA CoV-2 EC50 GeoMean; for SARS-CoV-2 % infected cells: 10 µM after 1 h infection
[6] = tested on: HeLa-ACE2 cells; assay: cells; type: cell-based, human; details: Homo sapiens, HeLa-ACE2; read-out: HeLa-ACE2 TOA cell count EC50 GeoMean
[7] = tested on: SARS-CoV-2; assay: microbe, parasite or virus in culture; type: cell-based; details: for Emax: Severe acute respiratory syndrome coronavirus 2, HeLa-ACE2, 24 h, read-out: HeLa-ACE2 CoV-2 Sinf Average; for EC50: read-out: HeLa-ACE2 CoV-2 EC50 GeoMean; for HeLa-ACE2 SI: selectivity index, uninfected HeLa-ACE2 CC50 / SARS-CoV-2 EC50
[8] = tested on: HEK293T; details: human, 72 h
[9] = tested on: HepG2; details: human, 72 h
[10] = Uninfected HeLa-ACE2 24 h live/dead cytotoxicity counter screen; type: cell-based, human; details: human, uninfected HeLa-ACE2 cells, read-out: HeLa-ACE2 uninfected cytotoxicity CC50 GeoMean
[11] = tested on: HeLa-ACE2 cells; assay: as above; type: cell-based, human
[12] = tested on: Calu-3 cells; assay: cells; details: Homo sapiens
[13] = tested on: Calu-3 cells
[14] = in vitro; details: human; remark: listed apart in the source
[15] = HEK293T 72 h CellTiter-Glo cytotoxicity; details: human, HEK293T cells
[16] = tested on: HEK293T; assay: HEK293T 72 h CellTiter-Glo cytotoxicity; details: 72 h
[17] = tested on: COVID-19; details: ref [9]; cited from earlier work
[18] = tested on: SARS-CoV-2; type: cell-based; details: combination with remdesivir
[19] = Uninfected Calu-3 48 h Cell-Titer Glo cytotoxicity counter screen; details: human, uninfected Calu-3 cells, Calu-3 uninfected cytotoxicity CC50 GeoMean
[20] = tested on: Calu-3 cells; assay: as above; details: human, uninfected Calu-3 cells, 48 h
[21] = tested on: HeLa-ACE2 cells; assay: Total cell count in the HeLa-ACE2 TOA (time of addition) assay; type: cell-based, human; details: Homo sapiens, HeLa-ACE2; read-out: HeLa-ACE2 TOA cell count EC50 GeoMean
[22] = HepG2 72 h CellTiter-Glo cytotoxicity; details: human, HepG2 cells
[23] = tested on: HepG2; assay: HepG2 72 h CellTiter-Glo cytotoxicity; details: 72 h
[24] = Severe acute respiratory syndrome coronavirus 2, HeLa-ACE2, detail block
[25] = curve plateau at infinite concentration
[26] = Severe acute respiratory syndrome coronavirus 2, HeLa-ACE2, detail column

Oc1ccc(Nc2ccnc3cc(Cl)ccc23)cc1CN1CCCC1 [Amopyroquine]
EC50 ([1]; HeLa-ACE2, read-out: HeLa-ACE2 cell count EC50 GeoMean, detail block): > 9.59 µM
CC50 at 72 h [2]: 6.39 µM
CC50 at 48 h [3]: 18.7 µM
Emax ([4]; Severe acute respiratory syndrome coronavirus 2, Calu-3, 48 h, curve plateau at infinite concentration, read-out: Calu-3 CoV-2 Sinf Average): 100%
EC50 ([4]; detail block): > 9.98 µM
Calu-3 SI ([4]; selectivity index, uninfected Calu-3 CC50 / Calu-3 SARS-CoV-2 EC50): 1.87
Emax ([5]; Severe acute respiratory syndrome coronavirus 2, HeLa-ACE2, 10 h, curve plateau at infinite concentration, read-out: HeLa-ACE2 TOA CoV-2 Sinf Average): 100%
EC50 [5, 24]: > 9.59 µM
TOA:HeLa-ACE2 EC50 Ratio ([5]; TOA EC50 / HeLa-ACE2 SARS-CoV-2 EC50): 10.603
EC50 [6]: > 9.59 µM
Emax [7, 25]: 100%
EC50 [7, 24]: 0.904 µM
HeLa-ACE2 SI [7]: 19.02
HEK293T 72-hour cytotoxicty Sinf Average [8]: -103%
HepG2 72-hour cytotoxicity Sinf Average [9]: -102%
CC50 at 24 h ([10]; detail block): 17.2 µM
HeLa-ACE2 uninfected cytotoxicity Sinf Average [11, 25]: -100%
EC50 ([12]; Calu-3, read-out: Calu-3 cell count EC50 GeoMean, detail block): > 9.98 µM
uninfected Calu-3 CC50 [13]: 18.669 ×÷ 1.171 (n=3) μM
Calu-3 uninfected cytotoxicity Sinf Average ([13]; human, 48 h): -96%
CC50 at 72 h [14]: 6.31 µM

CCN(CCO)CCCC(C)Nc1ccnc2cc(Cl)ccc12 (centres unmarked) [Hydroxychloroquine sulfate]
Emax ([1]; HeLa-ACE2, 24 h, read-out: HeLa-ACE2 cell count Sinf Average): -47%
EC50 ([1]; HeLa-ACE2, read-out: HeLa-ACE2 cell count EC50 GeoMean): > 5.88 µM
CC50 at 72 h [15]: 10.1 µM
HEK293T 72-hour cytotoxicty Sinf Average [16]: -101%
EC50 [4]: > 9.99 µM
TOA:HeLa-ACE2 EC50 Ratio [5]: 20.968
SARS-CoV-2 % infected cells ([5]; 4:00:00 post infection): 0.3802% and 0.1721% and 0.1129%
SARS-CoV-2 % infected cells ([5]; 5:00:00): 0.24% and 0.7413% and 0.2751%
SARS-CoV-2 % infected cells ([5]; 6:00:00): 11.7654% and 10.6398% and 10.3646%
SARS-CoV-2 % infected cells ([5]; 7:00:00): 25.8166% and 25.8417% and 29.0337%
SARS-CoV-2 % infected cells ([5]; 8:00:00): 31.116% and 29.6088% and 30.8104%
SARS-CoV-2 % infected cells ([5]; 10:00:00): 33.0276% and 34.8116% and 35.0891%
SARS-CoV-2 % infected cells ([5]; 11:00:00): 35.46% and 36.5434% and 36.8817%
SARS-CoV-2 % infected cells ([5]; 12:00:00): 33.0004% and 35.9224% and 38.4986%
SARS-CoV-2 % infected cells ([5]; 24:00:00): 45.3401% and 44.0948% and 41.0805%
activity when treatment was initiated at 1 hpi ([5]; HeLa-ACE2, 10 µM): Loss of activity
EC50 [5, 26]: > 9.61 µM
mortality of hospitalized COVID-19 patients [17]: failed to reduce mortality
Emax [7]: 100%
EC50 [7, 26]: 0.458 µM
HeLa-ACE2 SI [7]: > 40.04
HeLa-ACE2 synergy score with remdesivi [18]: -1.572 δ
CC50 at 48 h [19]: > 24.7 µM
Calu-3 uninfected cytotoxicity Sinf Average [20]: -100%
EC50 [21]: > 9.61 µM
CC50 at 24 h [10]: > 18.3 µM
HeLa-ACE2 uninfected cytotoxicity Sinf Average ([11]; human, uninfected HeLa-ACE2 cells, 24 h): -99%
CC50 at 72 h [22]: 3.62 µM
HepG2 72-hour cytotoxicity Sinf Average [23]: -100%
EC50 ([12]; Calu-3, read-out: Calu-3 cell count EC50 GeoMean): > 9.99 µM
cytotox ([13]; human): 13.7874

interferon
mortality of hospitalized COVID-19 patients [17]: failed to reduce mortality
